Assay results published in patent US11357850B2, “Methods for treating breast cancer using INOS-inhibitory compositions” (The Methodist Hospital, priority 2014, dated 2022).
Where two headings read alike, the source gives them in different places.

Experiments:
MDA-MB-231 = experiment: Cell proliferation assay (WST-1), calcium channel antagonists; format: cell-based, human; conditions: 0, 1, 5, and 10 μM for 72 hrs
Protocol: (§1) Cell Proliferation Assay In Vitro. Mesenchymal-like, TNBC cell lines, MDA-MB-231 and SUM159, were grown in DMEM supplemented with 10% fetal bovine serum and 1% antibiotic-antimycotic. Stock solutions of various calcium-channel antagonists (amlodipine, nicardipine, nifedipine, felodipine, isradipine, diltiazem, verapamil, lacidipine, nisoldipine, nitrendipine, nivaldipine, azelnidipine, barnidipine, benidipine, efonidipine, lercanidipine, pranidipine, and manidipine) were prepared in DMSO. Effects on cell proliferation were assayed with the WST-1 method. Briefly, 1,000 (SUM159) and 2,000 (MDA-MB-231) cells/well were plated in a 96-well plate and treated with different concentrations (0, 1, 5, and 10 μM) of calcium channel antagonists for 72 hrs. Proliferation rate was determined by adding premixed WST-1 reagent. After incubation at 37° C. for three hrs, absorbance was read at 450 nm (reference wavelength 690 nm). Results were normalized against vehicle (100%). The antagonists were considered active when proliferation was decreased in ≥30%.

SUM159 = experiment: as above; format: cell-based, human; conditions: 0, 1, 5, and 10 μM for 72 hrs
Protocol: as §1

MDA-MB-231 xenografts = MDA-MB-231 xenografts treated with L-NMMA, docetaxel, combination; format: in vivo, mice
Protocol: (§2) Animal Studies. Female SCID Beige mice (4-5 weeks old) (Harlan Laboratories, Houston, Tex., USA) were housed under standard laboratory conditions (22° C.; 12 hrs/12 hrs light/dark cycle and free access to food and water). Either MDA-MB-231 or SUM159 cells (3×10^6) were injected in the right mammary fat pad. Once the tumors reached 150-200 mm^3, the mice were randomized into different groups as follows (n=10/group): 1) Vehicle (saline, i.p.), 2) L-NMMA (either 80 mg/kg or 200 mg/kg, i.p., daily), 3) Docetaxel (20 mg/kg), 4) Combo (L-NMMA and docetaxel).
(§3) Self-renewal and tumor-initiating capacity was determined by MSFE and limiting-dilution assays, respectively, in single cells isolated from tumor tissue. Briefly, breast tumor tissue was minced, digested in DMEM:F12 medium with 100 U/mL of collagenase type 3 (Worthington, Lakewood, N.J., USA) and 0.8 U/mL of dispase (Gibco, Carlsbad, Calif., USA) at 37° C. for 45 min. MSFE was assayed in isolated single cells as stated above. The limiting dilution assay (LDA) was performed injecting either […] isolated cells from tumor tissue in the mammary fat pad of SCID Beige mice (n=12/group). Flow cytometric analysis of CD44^+/CD24^−/low cell population was assayed using published methods.
The role of L-NMMA was then investigated, either alone or in combination with docetaxel in a different TNBC mouse model. Docetaxel (20 mg/kg at days 0 and 21) and 200 mg/kg L-NMMA (daily) were given to MDA-MB-231 xenograft-bearing mice for 31 days.

SUM159 xenografts = SUM159 xenografts treated with L-NMMA, docetaxel, combination; format: in vivo, mice
Protocol: as §2, §3
To answer this question, daily injections of 80 mg/kg L-NMMA were first given to SUM159 xenograft-bearing mice alone or in combination with docetaxel (20 mg/kg). […] The inventor next analyzed the impact on CSC self-renewal by the MSFE assay.

[1] = tested on: unresectable stage III or IV advanced melanoma; conditions: cited from earlier work
advanced melanoma = conditions: 2 mg/kg, 173 patients; cited from earlier work
[2] = tested on: recurrent or metastatic head and neck squamous cell carcinoma; conditions: cited from earlier work
[3] = tested on: metastatic PD-L1-positive NSCLC; conditions: cited from earlier work
[4] = tested on: advanced, PD-L1-positive TNBC; conditions: cited from earlier work
[5] = tested on: ipilimumab-refractory metastatic melanoma; conditions: cited from earlier work
MCF10A = experiment: Western blot of PERK/eIF2α/ATF4/ATF3 axis with recombinant TGFβ1; format: cell-based; conditions: 10 ng/mL for 24 hrs
Excerpt: FIG. 3A, FIG. 3B, FIG. 3C, FIG. 3D, FIG. 3E, FIG. 3F, FIG. 3G, FIG. 311, FIG. 3I, and FIG. 3J show iNOS knockdown impairs tumorigenicity and EMT by a dual impact on HIF1α and endoplasmic reticulum (ER) stress/TGFβ/AFT4/ATF3 crosstalk. Proliferation (FIG. 3A), migration (FIG. 3B), and self-renewal capacity (primary and secondary mammospheres) (FIG. 3C) in MDA-MB-231 cells transfected with two different NOS2-directed shRNAs (shRNA1, shRNA2) compared with empty vector (shRNA-EV). […] Selective iNOS inhibition reduced hypoxia (HIF1α), ER stress markers (IRE1α, ATF4) (FIG. 3F), phospho-Smad2/3, Smad2/3 and mature TGFβ protein levels in MDA-MB-231 and SUM159 cells (FIG. 3G). FIG. 3H: Recombinant TGFβ1 (10 ng/mL for 24 hrs) activates the PERK/eIF2α/ATF4/ATF3 axis in MCF10A. […] FIG. 3J: Selective iNOS inhibition is postulated to impair EMT and tumor cell migration by an impact on HIF1α, ER stress (IRE1α/XBP1) and the crosstalk between ATF4, ATF3 and TGFβ. Results were normalized to empty vector. Data are presented as mean±SEM. ****p<0.0001, ***p<0.001, **p<0.01. One-way ANOVA and Bonferroni's post-hoc test;
Western Blot. Cells were cultured at a density of 2.5×10^5 cells/well in 6-well plates with or without iNOS inhibitors for 96 hrs. Cells were resuspended in 1× lysis buffer (Cell Signaling Technology, Inc.) and 1× protease/phosphatase inhibitor cocktail (Thermo Scientific). […]

## CC1=C(C(=O)OC(C)C)C(c2cccc([N+](=O)[O-])c2)C(C(=O)OC2CN(C(c3ccccc3)c3ccccc3)C2)=C(N)N1 (centres unmarked) [azelnidipine]
MDA-MB-231
  proliferation: dose-dependent decrease in proliferation
SUM159
  proliferation: dose-dependent decrease in proliferation

## CC(=O)O[C@@]12CO[C@@H]1C[C@H](O)[C@@]1(C)C(=O)[C@H](O)C3=C(C)[C@@H](OC(=O)[C@H](O)[C@@H](NC(=O)OC(C)(C)C)c4ccccc4)C[C@@](O)([C@@H](OC(=O)c4ccccc4)[C@H]21)C3(C)C [docetaxel]
MDA-MB-231 xenografts; 5 weeks with 5×10^4 cells, vehicle 12/12
  limiting dilution assay, tumors: 8/12
MDA-MB-231 xenografts; after six weeks, vehicle 6/12
  limiting dilution assay, tumors: 8/12
MDA-MB-231 xenografts; relative to the combination group
  apoptosis levels (cleaved caspase-3): higher apoptosis levels
SUM159 xenografts; 7 weeks with 5×10^4 cells, vehicle 12/12
  limiting dilution assay, tumors: 12/12
SUM159 xenografts; mouse, in vivo
  CD44+/CD24−/low population (flow cytometry): slight increase
  primary and secondary MSFE of single tumor cells isolated from tumor tissue: dramatic increase
SUM159 xenografts; week nine with 2×10^4 cells, vehicle 7/12
  limiting dilution assay, tumors: 3/12

## CCOC(=O)C1=C(C)NC(C)=C(C(=O)OCC)C1c1ccccc1/C=C/C(=O)OC(C)(C)C [lacidipine]
MDA-MB-231
  proliferation: dose-dependent decrease in proliferation
SUM159
  proliferation: dose-dependent decrease in proliferation

## COC(=O)C1=C(C#N)NC(C)=C(C(=O)OC(C)C)C1c1cccc([N+](=O)[O-])c1 (centres unmarked) [nivaldipine]
MDA-MB-231
  proliferation: dose-dependent decrease in proliferation
SUM159
  proliferation: dose-dependent decrease in proliferation

## ipilimumab: comparator in the KEYNOTE-006 melanoma study
[1]; ipilimumab 3 mg/kg Q3W, four cycles
  estimated 6-month PFS rate: 26.5%
[1]; ipilimumab 3 mg/kg Q3W
  estimated 12-month survival rate: 58.2%
  rate of Grade 3-5 treatment-related AEs: 19.9%
  response rate: 11.9%

## pembrolizumab: humanized monoclonal antibody of the IgG4/κ isotype blocking the interaction between PD-1 and its ligands
Advanced melanoma
  overall response rate: 24%
[1]; pembrolizumab 10 mg/kg Q2W
  estimated 6-month PFS rate: 47.3%
[1]; pembrolizumab 10 mg/kg Q3W
  estimated 6-month PFS rate: 46.4%
[1]; pembrolizumab Q2W
  estimated 12-month survival rate: 74.1%
  rate of Grade 3-5 treatment-related AEs: 13.3%
  response rate: 33.7%
[1]; pembrolizumab Q3W
  estimated 12-month survival rate: 68.4%
  rate of Grade 3-5 treatment-related AEs: 10.1%
  response rate: 32.9%
[2]; 10 mg/kg Q2W or 200 mg Q3W, n=174
  ORR: 16%
[2]; 23 of 28
  responding patients with responses of 6 months or longer: 82%
[2]; in vivo
  SAEs, patients: 45%
  dyspnea, patients: 20%
  fatigue, patients: 46%
[3]; 11 patients
  patients having a DoR of ≥6 months: 44%
[3]; 21 of 25
  responses ongoing at the time of the analysis, patients: 85%
[3]; 61 patients with PD-L1 strongly positive tumors, all partial responses
  objective response rate (ORR): 41%
[4]; 10 mg/kg Q2W, 27 evaluable patients
  overall response rate: 18.5%
[4]; 10 mg/kg Q2W
  PR, patients: 14.8%
  complete response (CR), patients: 3.7%
  progressive disease (PD), patients: 48.1%
[4]; five patients
  Grade ≥3 AEs, patients: 15.6%
[4]; in vivo
  median DoR: not yet reached
[4]; range: 7.3-32.4 weeks
  median time to response: 17.9 weeks
[5]; 2 mg/kg Q3W
  6-month PFS rate: 34%
[5]; 2 mg/kg, 178 patients
  Grade 3-4 treatment-related fatigue, patients: 1%
[5]; 2 mg/kg
  Grade 3-4 generalized edema and myalgia (each), patients: 1%
  Grade 3-4 treatment-related adverse events, patients: 11%
[5]; 10 mg/kg Q3W
  6-month PFS rate: 38%
[5]; 10 mg/kg, 179 patients
  Grade 3-4 treatment-related fatigue, patients: < 1%
[5]; 10 mg/kg
  Grade 3-4 hypopituitarism, colitis, diarrhea, decreased appetite, hyponatremia, and pneumonitis (each), patients: 1%
  Grade 3-4 treatment-related adverse events, patients: 14%

## recombinant TGFβ1: recombinant human TGF-β1 (CHO cell derived)
MCF10A
  PERK/eIF2α/ATF4/ATF3 axis: induced the PERK/eIF2α/ATF4/ATF3 axis
